Reference: article PMC7826463, “Pamiparib dose escalation in Chinese patients with non‐mucinous high‐grade ovarian cancer or advanced triple‐negative breast cancer” (Cancer Medicine, 2020)
Where “and” joins values, the source holds several entries; their conditions need not be identical. Identical values can stand only once. Entries after “also recorded” stand apart in the source; their conditions may differ.

Test system: Chinese patients with advanced HGOC or TNBC
Assay: Safety/tolerability (adverse events per NCI-CTCAE v4.03, DLTs) in phase 1 dose escalation (NCT03333915)
Format: in vivo
Description: This phase 1/2, open‐label, multicenter study assessed the safety and antitumor activity of pamiparib in Chinese patients ≥18 years with advanced solid tumors whose disease progressed despite standard therapy or for which there is no standard therapy. Phase 1 was a dose‐escalation study, with a 3 + 3 design, that evaluated the single‐agent safety/tolerability, pharmacokinetic (PK) profile, and preliminary antitumor activity of pamiparib and confirmed the RP2D in Chinese patients (Figure 1). The phase 2 dose‐expansion component of this study is investigating the single‐agent antitumor activity and safety/tolerability of pamiparib.
In phase 1, patients received pamiparib at 20, 40, and 60 mg BID dose levels. The starting dose for pamiparib (20 mg BID) was selected as one‐third of the RP2D (60 mg BID) and one‐fourth of the MTD (80 mg BID), which were determined in the FIH study. […] Safety evaluations, including dose‐limiting toxicities (DLTs), of ≥3 patients completing one cycle of treatment at a specific dose level were required before proceeding to the next cohort with a higher dose level. Patients could continue the study treatment in 21‐day cycles and subsequent cycles at the discretion of the investigator.
The primary objective in phase 1 was to evaluate the safety and tolerability of pamiparib. Safety and tolerability endpoint assessments were based on monitoring of treatment‐emergent adverse events (AEs), in addition to vital signs, electrocardiograms, physical examinations, and clinical laboratory results. The incidence and severity of all AEs and incidence of serious AEs were assessed according to the National Cancer Institute‐Common Terminology Criteria for Adverse Events v4.03.
Approximately 14 to 18 evaluable patients were expected to enroll in the phase 1 part of the study. The safety population included all patients who received ≥1 dose of pamiparib. The PK population included all patients for whom valid pamiparib PK parameters could be estimated. Antitumor activity per RECIST v1.1 was assessed in all evaluable patients. Patients were considered response evaluable if they had measurable disease at baseline per RECIST v1.1 and had ≥1 post‐baseline tumor assessment, unless treatment had been discontinued due to clinical progression or death prior to tumor assessment. The population evaluable for CA‐125 response included patients in the safety population with baseline CA‐125 ≥2 x upper limit of normal.

`C[C@]12CCCN1CC1=NNC(=O)c3cc(F)cc4[nH]c2c1c34` [pamiparib, Pamiparib] was tested, and the “Treatment-related adverse event Decreased white blood cell count, Grade ≥3” value (60 mg BID (n = 7)) was 2 (28.6) n (%), the “Treatment-related adverse event Diarrhea, All Grades” value (60 mg BID (n = 7)) was 2 (28.6) n (%) and the “Treatment-related adverse event Diarrhea, Grade ≥3” value (60 mg BID (n = 7)) was 0 n (%). The “Treatment-related adverse event Increased GGT, All Grades” value (60 mg BID (n = 7)) was 1 (14.3) n (%), the “Treatment-related adverse event Increased GGT, Grade ≥3” value (60 mg BID (n = 7)) was 0 n (%) and the “Treatment-related adverse event Increased conjugated bilirubin, All Grades” value (60 mg BID (n = 7)) was 2 (28.6) n (%). The “Treatment-related adverse event Increased conjugated bilirubin, Grade ≥3” value (60 mg BID (n = 7)) was 0 n (%), the “Treatment-related adverse event Nausea, All Grades” value (60 mg BID (n = 7)) was 5 (71.4) n (%) and the “Treatment-related adverse event Nausea, Grade ≥3” value (60 mg BID (n = 7)) was 1 (14.3) n (%). The “Treatment-related adverse event Prolonged electrocardiogram QT, All Grades” value (60 mg BID (n = 7)) was 2 (28.6) n (%), the “Treatment-related adverse event Prolonged electrocardiogram QT, Grade ≥3” value (60 mg BID (n = 7)) was 0 n (%) and the “Treatment-related adverse event Somnolence, All Grades” value (60 mg BID (n = 7)) was 1 (14.3) n (%). The “Treatment-related adverse event Somnolence, Grade ≥3” value (60 mg BID (n = 7)) was 0 n (%), the “Treatment-related adverse event Tachycardia, All Grades” value (60 mg BID (n = 7)) was 2 (28.6) n (%) and the “Treatment-related adverse event Tachycardia, Grade ≥3” value (60 mg BID (n = 7)) was 0 n (%). The “Treatment-related adverse event Vomiting, All Grades” value (60 mg BID (n = 7)) was 2 (28.6) n (%), the “Treatment-related adverse event Vomiting, Grade ≥3” value (60 mg BID (n = 7)) was 1 (14.3) n (%) and the “Discontinued treatment: Adverse event” value (60 mg BID (n=7), count (percent)) was 2 (28.6). For the same compound, the Tolerability (20 to 60 mg BID, Chinese patients) was “generally well tolerated”, the “Grade 3 TRAE: anemia” value (N = 15) was 2 n and the “Grade 4 or 5 TRAEs” value (N = 15) was “No grade 4 or 5 TRAEs”. For the same compound, the “Grade ≥4 AEs” value (N = 15) was “no grade ≥4 AEs”, the “Patients who experienced a serious AE” value (N = 15) was “three” and the “Patients who experienced ≥1 AE considered related to pamiparib” value (N = 15) was 100%. The “Serious AE: abdominal infection” value (N = 15) was 1 n, the “Serious AE: intestinal obstruction” value (N = 15) was 1 n and the “Serious AE: pleural effusion” value (N = 15) was 1 n. The “Serious AEs considered related to study treatment” value (N = 15) was “none and no DLTs or serious AEs considered related to pamiparib”, the “Patients who experienced grade ≥3 AEs” value (N = 15 (10 patients), all causality) was 67% and the “Patients who experienced ≥1 TRAE of grade 3 severity” value (N = 15 (six patients)) was 40%. For the same compound, the “AE of any grade: asthenia” value (N = 15, all causality) was 80%, the “AE of any grade: decreased appetite” value (N = 15, all causality) was 60% and the “AE of any grade: decreased white blood cell count” value (N = 15, all causality) was 67%. The “AE of any grade: nausea” value (N = 15, all causality) was 80%, the “Grade ≥3 AE: anemia” value (N = 15, all causality) was 27% and the “Grade ≥3 AE: decreased hemoglobin” value (N = 15, all causality) was 20%. For the same compound, the “Patients who experienced ≥1 AE of any grade” value (N = 15, all causality) was 15 patients, the “Treatment-related AE: asthenia” value (N = 15, any grade) was 80% and the “Treatment-related AE: nausea” value (N = 15, any grade) was 80%. For the same compound, the “Recommended phase 2 dose (RP2D) confirmed in Chinese patients” value (PO) was 60 mg BID, the “Treatment-related adverse event Asthenia, All Grades” value (Total (N = 15)) was 12 n (%) and 12 (80.0) n (%) and the “Treatment-related adverse event Asthenia, Grade ≥3” value (Total (N = 15)) was 0 n (%). For the same compound, the “Treatment-related adverse event Decreased appetite, All Grades” value (Total (N = 15)) was 9 (60.0) n (%), the “Treatment-related adverse event Decreased appetite, Grade ≥3” value (Total (N = 15)) was 0 n (%) and the “Treatment-related adverse event Decreased hemoglobin, All Grades” value (Total (N = 15)) was 6 (40.0) n (%). The “Treatment-related adverse event Decreased hemoglobin, Grade ≥3” value (Total (N = 15)) was 3 n (%) and 3 (20) n (%), the “Treatment-related adverse event Decreased neutrophil count, All Grades” value (Total (N = 15)) was 8 (53.3) n (%) and the “Treatment-related adverse event Decreased neutrophil count, Grade ≥3” value (Total (N = 15)) was 2 n (%) and 2 (13) n (%). For the same compound, the “Treatment-related adverse event Decreased platelet count, All Grades” value (Total (N = 15)) was 3 (20.0) n (%), the “Treatment-related adverse event Decreased platelet count, Grade ≥3” value (Total (N = 15)) was 1 n (%) and 1 (7) n (%) and the “Treatment-related adverse event Decreased white blood cell count, All Grades” value (Total (N = 15)) was 10 (66.7) n (%). For the same compound, the “Treatment-related adverse event Decreased white blood cell count, Grade ≥3” value (Total (N = 15)) was 2 n (%) and 2 (13) n (%), the “Treatment-related adverse event Diarrhea, All Grades” value (Total (N = 15)) was 3 (20.0) n (%) and the “Treatment-related adverse event Diarrhea, Grade ≥3” value (Total (N = 15)) was 0 n (%). For the same compound, the “Treatment-related adverse event Increased GGT, All Grades” value (Total (N = 15)) was 3 (20.0) n (%), the “Treatment-related adverse event Increased GGT, Grade ≥3” value (Total (N = 15)) was 0 n (%) and the “Treatment-related adverse event Increased conjugated bilirubin, All Grades” value (Total (N = 15)) was 4 (26.7) n (%). For the same compound, the “Treatment-related adverse event Increased conjugated bilirubin, Grade ≥3” value (Total (N = 15)) was 0 n (%), the “Treatment-related adverse event Nausea, All Grades” value (Total (N = 15)) was 12 n (%) and 12 (80.0) n (%) and the “Treatment-related adverse event Nausea, Grade ≥3” value (Total (N = 15)) was 1 n (%) and 1 (7) n (%). The “Treatment-related adverse event Prolonged electrocardiogram QT, All Grades” value (Total (N = 15)) was 4 (26.7) n (%), the “Treatment-related adverse event Prolonged electrocardiogram QT, Grade ≥3” value (Total (N = 15)) was 1 n (%) and 1 (7) n (%) and the “Treatment-related adverse event Somnolence, All Grades” value (Total (N = 15)) was 3 (20.0) n (%). For the same compound, the “Treatment-related adverse event Somnolence, Grade ≥3” value (Total (N = 15)) was 0 n (%), the “Treatment-related adverse event Tachycardia, All Grades” value (Total (N = 15)) was 3 (20.0) n (%) and the “Treatment-related adverse event Tachycardia, Grade ≥3” value (Total (N = 15)) was 0 n (%). The “Treatment-related adverse event Vomiting, All Grades” value (Total (N = 15)) was 4 (26.7) n (%), the “Treatment-related adverse event Vomiting, Grade ≥3” value (Total (N = 15)) was 1 n (%) and 1 (7) n (%) and the “Dose-limiting toxicities (DLTs)” value (pamiparib dose range 20-60 mg BID, 23-day initial cycle) was “No dose‐limiting toxicities; also recorded: no DLTs”.
